From US9636299B2, “Method for treating diabetic retinopathy” (XAVIER UNIVERSITY OF LOUISIANA, priority 2012, dated 2017)
Residues, ends and D or L forms follow the SMILES beside them.

What was measured:
[1] = test system: endothelial nitric oxide synthase (eNOS); experiment: eNOS expression in high glucose-treated hRMECs (Western blot); type: cell-based, human; details: 100 μM apoEdp, 30 minute treatment
Description: (§1) Cell Culture. Primary cultures of human retina microvascular endothelial cells (hRMECs) were purchased from the Applied Cell Biology Research Institute and grown on attachment factor-coated plates in cell systems complete (CSC) medium (Cell Systems, Kirkland, Wash.) supplemented with 20% fetal bovine serum, culture boost (animal derived growth factors) and bac-off (antibiotics). The primary hRMECs were used in their passages 4 to 6. The 18-a.a. apoE mimetic peptide apoEdp (SEQ ID NO:3, Ac-LRKLRKRLLLRKLRKRLL-amide), derived from the human apolipoprotein E receptor-binding region (see SED ID NO:1) between residues 141 and 149, was synthesized (Genemed, Arlington, Tex.) with a purity of greater than 95%. The apoEdp peptide was dissolved in phosphate-buffered saline (“PBS”) at a concentration appropriate for further experimental use. […]
(§2) Western Blotting. […] The total protein concentration was determined using a BCA protein assay kit (Pierce, Rockford, Ill.). […] To ensure the equal loading of protein in each lane, each membrane was stripped and re-probed with an antibody against β-actin, and the chemiluminescence was detected as described previously. After scanning the blots with a flatbed scanner, band intensities were analyzed using ImageJ (NIH) and the relative intensity values were normalized to control values. […]

heparanase [2] = experiment: Heparanase expression in high glucose-treated hRMECs (Western blot); type: cell-based, human; details: 30 mM glucose 72 hours, 50 or 100 μM apoEdp
Description: as §1, §2

heparan sulfate (HS) = experiment: Heparan sulfate shedding in high glucose-treated hRMECs (Western blot); type: cell-based, human; details: 30 mM glucose 72 hours, 50 or 100 μM apoEdp
Description: as §1, §2

occludin = experiment: Streptozotocin-induced diabetic mice, retinal occludin mRNA by real-time RT-PCR; type: in vivo, mouse; details: 14 days, vs diabetic non-treated
Experimental: RNA Extraction, Reverse Transcription, & PCR. Following euthanasia, mouse eyes were enucleated and placed immediately into RNAlater® RNA stabilization reagent (Qiagen, Hilden, Germany). Intraocular fluids were aspirated and pooled, and total cellular RNA was isolated using an RNeasy® Mini Kit (Qiagen) according to the manufacturer's instructions. Gene expression was measured at RNA level per 100 ng of total RNA using one-step RT-PCR kit (Bio-Rad, Hercules, Calif.). Four host genes (mouse GAPDH, mouse MMP2, mouse HPSE-1 (heparanase-1), and mouse MMP9) were analyzed to confirm relative quantitative expression levels. The primer pairs used were specifically designed and synthesized by Qiagen GmbH, Hilden, Germany (Quantitech Primer assay kit, for each host gene, catalog numbers QT01658692, QT00088396, QT00009555, and QT00040040, respectively). One-step Real-time quantitative RT-PCR reactions were performed in a 50-μL volume containing a solution of 1× supermix (iQ SYBR Green; Bio-Rad, Hercules, Calif.), 1 μM mix of forward and reverse primers, and 5 μL total RNA. A four-step protocol was used: denaturation, 3 minutes at 95° C.; amplification and quantification, 40 cycles of 15 seconds at 95° C. followed by 30 seconds at 60° C.; melting curve, 60 to 95° C. with a heating rate of 0.5° C. per second; followed by cooling (MyiQ Single Color Real-Time PCR Detection System; Bio-Rad). […]

heparanase [3] = experiment: Streptozotocin-induced diabetic mice, heparanase expression; type: in vivo, mouse; details: either 14-day eye drop application or systemic i/p injection
Experimental: (§3) Streptozotocin (STZ) induced diabetes. Twelve week old C57Bl/6 mice were used for this study. Mice were induced to have diabetes by intraperitoneal injection of 170 μg/g of streptozotocin (Sigma Aldrich, St. Louis, Mo.). Controls were injected with a vehicle (0.01M sodium citrate buffer). On the third day after STZ treatment, mice tail veins were bled to test the hyperglycemic status using blood sugar detection kit (Lifescan; Johnson & Johnson, Milpitas, Calif.). Mice with blood sugar levels of >300 mg/dL on the third day after STZ treatment were considered diabetic. Eye drop treatment containing 1% apoEdp or vehicle PBS was continued 4 times a day for 14 consecutive days. Intra-peritoneal (i/p) injection containing 40 mg/kg of apoEdp or vehicle control PBS was administered once daily for 14 consecutive days. On the 15th day post-treatment, mice were euthanized, their eyes enucleated, and the retinas dissected out to use for mRNA or Western blot analysis.
(§4) Increased vascular permeability in diabetic retinopathy (DR) is reported to result in a concomitant increase of VEGF. The VEGF pathway is known to play a role in breakdown of the BRB through a mechanism involving the down regulation of tight junction proteins in the retinal microvasculature (20).

HS = experiment: Streptozotocin-induced diabetic mice, loss of HS; type: in vivo, mouse; details: either 14-day eye drop application or systemic i/p injection
Experimental: as §3, §4

CC(=O)N[C@@H](CC(C)C)C(=O)N[C@@H](CCCNC(=N)N)C(=O)N[C@@H](CCCCN)C(=O)N[C@@H](CC(C)C)C(=O)N[C@@H](CCCNC(=N)N)C(=O)N[C@@H](CCCCN)C(=O)N[C@@H](CCCNC(=N)N)C(=O)N[C@@H](CC(C)C)C(=O)N[C@@H](CC(C)C)C(=O)N[C@@H](CC(C)C)C(=O)N[C@@H](CCCNC(=N)N)C(=O)N[C@@H](CCCCN)C(=O)N[C@@H](CC(C)C)C(=O)N[C@@H](CCCNC(=N)N)C(=O)N[C@@H](CCCCN)C(=O)N[C@@H](CCCNC(=N)N)C(=O)N[C@@H](CC(C)C)C(=O)N[C@@H](CC(C)C)C(N)=O [apoEdp, Ac-LRKLRKRLLLRKLRKRLL-amide] (Ac-LRKLRKRLLLRKLRKRLL-NH2)
Elevated expression of eNOS induced by 30 mM D-glucose [1]: prevented
High glucose-induced expression of heparanase (heparanase [2]): suppressed the expression
High glucose-induced shedding of HS (heparan sulfate (HS)): reduced the shedding
Down-regulation of occludin-specific mRNA in retina (occludin; 1% apoEdp eye drop 4 times a day): significantly inhibited the down-regulation
Down-regulation of occludin-specific mRNA in retina (occludin; i/p injection 40 mg/kg daily): significantly inhibited the down-regulation
Increased expression of heparanase (heparanase [3]): reversed increased expression of heparanase
Loss of HS (HS): reversed
